Assay results taken from patent publication US5902815A, “Use of 5HT-2A serotonin agonists to prevent adverse effects of NMDA receptor hypofunction” (priority 1996, dated 1999).
Entries after “also recorded” stand apart in the source; their conditions may differ. Where two headings read alike, the source gives them in different places.

Tests used:
schizophrenia = conditions: cited from earlier work
[1] = test system: NR/hypo-induced vacuoles in PC/RS cortical neurons (MK-801); assay: Anti-psychotic drugs and sigma blockers: protection against NR/hypo-induced vacuoles; format: in vivo, rats; conditions: for ED50: Rattus norvegicus, Cortical neurone, read-out: ED50 in protecting against NR/hypo-induced vacuoles; for ED50 / activity in protecting against NR/hypo-induced vacuoles (words): ip; for effect on vacuole formation / activity in protecting against NR/hypo-induced vacuoles (words): rats, MK-801; for activity in protecting against NR/hypo-induced vacuoles (words): sulpiride given only 15 minutes prior to MK-801
Procedure: Several of the antipsychotic agents tested (haloperidol, thioridazine and loxapine) are known to interact with both dopamine receptors and sigma receptors.
Control animals received saline or DMSO, but no anti-psychotic drugs. Test animals were injected ip with an antipsychotic drug, listed above and in Table 2. Vacuoles were counted and data were processed as described in Example 1.

craving for cocaine = conditions: Sershen 1994; cited from earlier work
humans = conditions: cited from earlier work; for psychotomimetic reactions / psychosis in humans: NMDA antagonists
cerebrocortical neurons = conditions: cited from earlier work
[2] = test system: NMDA antagonist toxic side effects; assay: Safener drugs against NMDA antagonist toxic side effects (earlier findings); format: in vivo; conditions: Applicants' discovery, no data given
5HT-2A receptors = conditions: Burris et al 1991 or other literature; cited from earlier work
5HT2C receptors = conditions: Burris et al 1991 or other literature; cited from earlier work
[3] = test system: vacuolated pyramidal neurons of posterior cingulate and retrosplenial (PC/RS) cortices, MK-801 neurotoxicity; assay: Blocking MK-801 neurotoxicity (vacuolated PC/RS cortical neurons) in rats by serotonergic agents; format: in vivo, adult female rats; conditions: for ED50: Rattus norvegicus, Pyramidal neuron, read-out: ED50 in blocking MK-801 neurotoxicity, rats
Procedure: Each test rat also received a 5HT-2A/2C agonist drug (LSD, DOB, DOI, or DOM), while control rats received an inert carrier liquid as a placebo. After 4 hours, the rats were sacrificed, and brain tissue from specific regions which are susceptible to NR/hypo damage (layers III and IV of the posterior cingulate (PC) and retrosplenial (RS) cortices) were examined for vacuoles in the neurons, which are an indicator of toxic neuronal injury induced by NMDA receptor hypofunction.
DOI was purchased from Research Biochemicals International (Natick, Mass.).
(§1) For each test agent, at least 20 rats were used, and at least four dosages were tested.
(§2) The rats were sacrificed four hours after drug administration, and brain tissue from the PC/RS region was histopathologically evaluated by previously described methods using double-blinded techniques (Olney et al 1991). The number of vacuolated PC and RS neurons were counted on each side of the brain at a rostrocaudal level immediately posterior to where the corpus callosum ceases decussating across the midline (approximately 5.6 mm caudal to Bregma; Paxinos & Watson, The Rat Brain in Stereotaxic Coordinates, 2d Ed., 1986).
This drug is widely used in Europe, and is a 5HT-2A agonist but a 5HT-2C antagonist.
It is described in Nozulak et al 1993.

5HT-2C = conditions: cited from earlier work
5HT-7 = conditions: cited from earlier work
5HT-3 = conditions: cited from earlier work
5HT-6 = conditions: cited from earlier work
[4] = test system: NMDA receptors in chick embryo retina; assay: Excitotoxicity in chick embryo retina (NMDA with MK-801, LSD or DOI); conditions: MK-801 500 nM plus NMDA 40 μM, with or without LSD or DOI 500 nM to 100 μM; n=6 per condition
Procedure: Several tests were performed to ensure that when a 5HT-2A agonist is administered together with an NMDA antagonist, the 5HT-2A agonist will not interfere with the activity of the NMDA antagonist drug at NMDA receptors.
These experiments were performed using segments of chick embryo retina. This is a widely used model for studying the production and prevention of excitotoxic phenomena, since it is simple and inexpensive. Chick tissue is used, since it tends to provide a better model of adult mammalian tissue than embryonic or juvenile mammalian tissue. Unlike newborn mammals, which are usually blind at birth, baby chicks can see quite well as soon as they emerge from the shell, and the NMDA receptors in chick retinal tissue are fully mature and functional.
In these tests, NMDA was introduced into the incubation medium in a concentration (40 μM) sufficient to produce a fully developed excitotoxic lesion within 30 min, displaying acute degeneration and necrosis of the majority of neurons in the inner layers of the retina.

[5] = test system: pyramidal neurons in layers III and IV of the posterior cingulate (PC) and retrosplenial (RS) cortices; assay: Neurotoxic reaction to MK-801 in control rats (vacuolated neurons per section); format: in vivo, adult female rats; conditions: MK-801 0.5 mg/kg sc plus vehicle; ± SEM; n=26
Procedure: as §1, §2

5HT-2A/2C receptor = assay: 5HT-2A/2C antagonist block of agonist protection against MK-801 neurotoxicity; format: in vivo, adult female rats
From the text: The following example confirms that the neuroprotective effects provided by 5HT-2A/2C agonists are mediated through either the 5HT-2A or 5HT-2C receptor (or both), rather than through cross-reactivity at some other receptor or through some other mechanism. This was done by showing that these neuroprotective effects are blocked by selective 5HT-2A/2C antagonists.
Ritanserin is an antagonist drug that selectively blocks activation of 5HT-2A/2C receptors.
The brains were processed and the severity of damage was assessed as described in Example 1. Results were analyzed by analysis of covariance (ANCOVA) where the dose of DOI was the covariate and the presence of ritanserin served as the classification (treatment) variable. The homogeneity of slopes assumption was tested by determining whether there was a significant interaction between the covariate and the treatment variable.

[6] = Olney et al 1989, Corso et al 1994, adult rat
[7] = ip, 4 h, MK-801 0.5 mg/kg sc, test compound ip, dose reducing mean vacuolated neurons to 50% of control, 4 h

SMILES: CCNC(C)Cc1cccc(C(F)(F)F)c1 (stereo not shown) [fenfluramine]
- effect on symptoms of schizophrenia (schizophrenia; schizophrenic patients): can exacerbate the symptoms and displays of schizophrenia

SMILES: CSc1ccc2c(c1)N(CCC1CCCCN1C)c1ccccc1S2 (stereo not shown) [Thioridazine]
- ED50 [1]: 55.3 mg/kg

SMILES: CC[C@H]1C[C@H]2C[C@H]3c4[nH]c5ccc(OC)cc5c4CCN(C2)[C@@H]13 [ibogaine]
- suppression of craving for cocaine (craving for cocaine): can suppress the craving for cocaine

SMILES: c1ccc(C2(N3CCCCC3)CCCCC2)cc1 [Phencyclidine]
- psychotomimetic reactions / psychosis in humans (humans): can induce a psychosis which is clinically indistinguishable from schizophrenia
- pathomorphological changes in brain (cerebrocortical neurons; [6]): produce pathomorphological changes in various corticolimbic regions of the adult rat brain

SMILES: C=CCC1(C(C)CCC)C(=O)NC(=O)NC1=O (stereo not shown) [secobarbitol]
- prevention of NMDA antagonist toxic side effects [2]: prevent NMDA antagonists from causing toxic side effects

SMILES: C[C@@H]1CN(CCCn2c3ccccc3c3ccccc32)C[C@H](C)N1 [Rimcazole]
- ED50 [1]: 17.8 mg/kg

SMILES: COc1cc(CC(C)N)c(OC)cc1C (stereo not shown) [DOM, 1-(2,5-dimethoxy-4-methylphenyl)-2-aminopropane]
- activity at 5HT-2A receptors (5HT-2A receptors): selectively activate 5HT-2A and 5HT-2C receptors with higher affinity than other 5HT receptors
- activity at 5HT-2C receptors (5HT2C receptors): selectively activate 5HT-2A and 5HT-2C receptors with higher affinity than other 5HT receptors
- ED50 [3, 7]: 0.81 mg/kg

SMILES: COc1cc(CC(C)N)c(OC)cc1I (stereo not shown) [DOI, 1-(2,5-dimethoxy-4-iodophenyl)-2-aminopropane]
- activity at 5HT-2A receptors (5HT-2A receptors): selectively activate 5HT-2A and 5HT-2C receptors with higher affinity than other 5HT receptors
- activity at 5HT-2C receptors (5HT2C receptors): selectively activate 5HT-2A and 5HT-2C receptors with higher affinity than other 5HT receptors
- protection against NMDA antagonist toxicity with SDZ SER-082 added ([3]; DOI n=29, SDZ SER-082 added to block 5HT-2C receptor): found to protect against NMDA antagonist toxicity
- ED50 [3, 7]: 1.05 mg/kg

SMILES: Cc1ccccc1N=C(N)Nc1ccccc1C [Di(2-tolyl)guanidine, di(2-tolyl)guanidine]
- ED50 [1]: 22.2 mg/kg

SMILES: CCN(CC)C(=O)N[C@H]1C=C2c3cccc4[nH]cc(c34)C[C@H]2N(C)C1 [Lisuride]
- hallucinations (humans; in vivo): does not cause hallucinations
- prevention of the neurotoxic action of MK-801 / vacuole formation ([3]; rats, 5HT-2A/2C agonists, ip): can prevent vacuole formation caused by MK-801

SMILES: CN1CCN(C2=Nc3cc(Cl)ccc3Nc3ccccc32)CC1 [Clozapine]
- affinity for 5HT-2C (5HT-2C): high affinity
- affinity for 5HT-7 (5HT-7): high affinity
- affinity for 5HT-3 (5HT-3): high affinity
- ED50 [1]: 3.2 mg/kg
- affinity for 5HT-6 (5HT-6): high affinity

SMILES: CN1CC[C@@H]2CN3CCc4cccc(c43)[C@@H]2C1.O=C(O)/C=C/C(=O)O [SDZ SER-082]
- activity at 5HT-2C receptors (5HT2C receptors): selective 5HT-2C antagonist
- effect on MK-801 neurotoxicity ([3]; selective 5HT-2C antagonist, n=22): did not affect MK-801 neurotoxicity, either positively or negatively

SMILES: CN1CCN(C2=Nc3cc(F)ccc3Cc3ccccc32)CC1 [Fluperlapine]
- ED50 [1]: 2.3 mg/kg
- effect on vacuole formation [1]: shown to reduce vacuole formation

SMILES: COc1cc(CC(C)N)c(OC)cc1Br (stereo not shown) [DOB, 1-(2,5-dimethoxy-4-bromophenyl)-2-aminopropane]
- activity at 5HT-2A receptors (5HT-2A receptors): selectively activate 5HT-2A and 5HT-2C receptors with higher affinity than other 5HT receptors
- activity at 5HT-2C receptors (5HT2C receptors): selectively activate 5HT-2A and 5HT-2C receptors with higher affinity than other 5HT receptors
- ED50 [3, 7]: 0.36 mg/kg

SMILES: CN1CCN(C2=Nc3ccccc3Oc3ccc(Cl)cc32)CC1 [Loxapine]
- ED50 [1]: 23.6 mg/kg

SMILES: Cc1cc2c(s1)Nc1ccccc1N=C2N1CCN(C)CC1 [Olanzapine]
- ED50 [1]: 1.4 mg/kg
- effect on vacuole formation [1]: shown to reduce vacuole formation

SMILES: CCNC1(c2cccs2)CCCCC1=O (stereo not shown) [Tiletamine]
- pathomorphological changes in brain (cerebrocortical neurons; [6]): cause pathomorphological changes in the cerebral cortex of adult rats

SMILES: CCN1CCCC1CNC(=O)c1cc(S(N)(=O)=O)ccc1OC (stereo not shown) [Sulpiride]
- ED50 [1]: > 200 mg/kg
- activity in protecting against NR/hypo-induced vacuoles (words) [1]: Inactive
- activity in protecting against NR/hypo-induced vacuoles (words) ([1]; listed as sulpiride): inactive

SMILES: Clc1ccc2c(c1)C(N1CCNCC1)=Nc1ccccc1O2 [Amoxapine]
- ED50 [1]: 75 mg/kg

SMILES: C[C@]12N[C@H](Cc3ccccc31)c1ccccc12 [MK-801, (+)-5-methyl-10,11-dihydro-5H-di[a,d]cyclohepten-5,10-imine]
- protection against NMDA excitotoxic damage [4]: completely protected against excitotoxic damage; also recorded: showed no cytopathology
- mean number of vacuolated neurons per section [5]: 223±10.5

SMILES: CCN(CC)C(=O)[C@@H]1C=C2c3cccc4[nH]cc(c34)C[C@H]2N(C)C1 [LSD, lysergic acid diethylamide]
- activity at 5HT-2A receptors (5HT-2A receptors): agonizes 5HT-2A and 5HT-2C receptors
- activity at 5HT-2C receptors (5HT2C receptors): agonizes 5HT-2A and 5HT-2C receptors
- ED50 [3, 7]: 0.68 mg/kg
- ED50 in blocking MK-801 neurotoxicity ([3]; rats, MK-801 0.5 mg/kg sc, test compound ip, dose reducing mean vacuolated neurons to 50% of control, 4 h, 240 min): 0.67 mg/kg

SMILES: Cc1nc2sccn2c(=O)c1CCN1CCC(=C(c2ccc(F)cc2)c2ccc(F)cc2)CC1 [ritanserin]
- effect on positive symptoms of schizophrenia (schizophrenia; hallucinations, delusions): did not help relieve "positive" symptoms
- effect on symptoms of schizophrenia (schizophrenia; schizophrenic patients): only helped relieve certain "negative" symptoms of schizophrenia
- effect on exacerbation of schizophrenia by mCPP (schizophrenia; schizophrenic patients, mCPP): can be blocked
- effect of antagonist on DOI's protection (5HT-2A/2C receptor; ritanserin 0.03 mg/kg ip plus various doses of DOI, F(1,84)=23.36, p<0.0005): competitively blocks DOI's protective effects against the toxic side effects of MK-801; also recorded: significantly interfered with DOI's protection
- shift of the DOI blocking curve by ritanserin (5HT-2A/2C receptor; ritanserin 0.03 mg/kg ip, FIG. 3): shifted the blocking curve to the right

SMILES: N[C@@H](Cc1c[nH]c2ccccc12)C(=O)O [tryptophan]
- effect on symptoms of schizophrenia (schizophrenia; schizophrenic patients): can exacerbate the symptoms and displays of schizophrenia

SMILES: COc1cccc([C@H](O)C2CCN(CCc3ccc(F)cc3)CC2)c1OC [MDL 100,907]
- activity at 5HT-2A receptors (5HT-2A receptors): preferentially antagonizes 2A receptors
- activity at 5HT-2C receptors (5HT2C receptors): does not substantially affect 2C receptors

SMILES: CNC1(c2ccccc2Cl)CCCCC1=O (stereo not shown) [Ketamine]
- psychotomimetic reactions / psychosis in humans (humans): produces symptoms in normal humans that are indistinguishable from the symptoms of psychosis and thought disorder seen in schizophrenia
- duration of action (humans; anesthetic, intravenous): about 15 minutes
- pathomorphological changes in brain (cerebrocortical neurons; rat, in vivo): cause pathomorphological changes in the cerebral cortex of adult rats

SMILES: O=C(CCCN1CCC(O)(c2ccc(Cl)cc2)CC1)c1ccc(F)cc1 [Haloperidol]
- ED50 [1]: 5.1 mg/kg
